Earlier results as cited in patent US20240024227A1, “CANNABIS PLANT DERIVED EXTRACELLULAR VESICLES AND THERAPEUTIC METHODS USING THE SAME” (UNIVERSITY OF FLORIDA RESEARCH FOUNDATION, INCORPORATED, priority 2020, published 2024).
Where two headings read alike, the source gives them in different places.

Conditions: IP approximately 300 μg

| Structure (SMILES) | CBDa brain Cmax (ethanol Tween-80 solution) [ng/mg] | CBDa brain Cmax (vegetable oil) [ng/mg] | time of CBDa brain Cmax (vegetable oil or Tween-80) [min] | THCa levels in the brain |
| --- | --- | --- | --- | --- |
| C=C(C)[C@@H]1CCC(C)=C[C@H]1c1c(O)cc(CCCCC)c(C(=O)O)c1O [CBDa, Cannabidiolic acid] | 13.2 | 2.0 | 30 |  |
| CCCCCc1cc2c(c(O)c1C(=O)O)[C@@H]1C=C(C)CC[C@H]1C(C)(C)O2 [THCa, tetrahydrocannabinolic acid] |  |  |  | below detection |
